Source: US20030152500A1, “Rotor-stator apparatus and process for the formation of particles” (priority 2001, published 2003)

Legend:
[1] = Crystal size of rotor-stator exit stream observed under videomicroscope
[2] = Primary crystal/particle size by image analysis; type: physicochemical; conditions: Example 8: 15% (w/w) glycine 14 mL/min, ethanol 190 mL/min, anhydrous ethanol quench
Experimental: The same procedure as in Example 7 was used, except the feed rate of the 15% (w/w) aqueous glycine solution was 14 mL/min and the feed rate of the anhydrous ethanol antisolvent was 190 mL/min. A quenching solution of anhydrous ethanol (>99%) was used.
Salicylic acid […] was dissolved in anhydrous ethanol (>99%) at a concentration of 24.8% (w/w). This solution was fed to the same apparatus as configured in Example 1. Water was co-fed as the antisolvent.

mean size of crystals ([1]; Example 1: 5% (w/w) aqueous glycine 190 mL/min, ethanol 190 mL/min, 10,000 rpm, quench 50% water 50% ethanol): 25 μm
mean size of crystals ([1]; Example 3: as Example 1, rotor-stator speed 5,000 rpm): 40 μm
mean size of crystals ([1]; Example 4: as Example 1, 15% (w/w) glycine solution): 40 μm
mean size of crystals ([1]; Example 5: as Example 1, 15% (w/w) glycine, 5,000 rpm): 70 μm
mean length of crystals ([1]; Example 6: as Example 1, 15% (w/w) glycine, 0 rpm): 300 μm
mean size of crystals ([1]; Example 7: 15% (w/w) glycine 21 mL/min, ethanol 190 mL/min): 6 μm
mean size of primary crystals [2]: 4.4 μm
SMILES: NCC(=O)O [glycine, Glycine]
